Here are results for 28 compounds from US8153805B2, “Biaryl derivatives” (Hoffmann-La Roche Inc., priority 2007, dated 2012).

The target of this assay is T1, human CCR2B (Homo sapiens, UniProt P41597).
T1 construct: host or cells: CHO-K1 (CHOK1-CCR2B-A5)
T1 sequence (P41597 1-360 isoform P41597-2): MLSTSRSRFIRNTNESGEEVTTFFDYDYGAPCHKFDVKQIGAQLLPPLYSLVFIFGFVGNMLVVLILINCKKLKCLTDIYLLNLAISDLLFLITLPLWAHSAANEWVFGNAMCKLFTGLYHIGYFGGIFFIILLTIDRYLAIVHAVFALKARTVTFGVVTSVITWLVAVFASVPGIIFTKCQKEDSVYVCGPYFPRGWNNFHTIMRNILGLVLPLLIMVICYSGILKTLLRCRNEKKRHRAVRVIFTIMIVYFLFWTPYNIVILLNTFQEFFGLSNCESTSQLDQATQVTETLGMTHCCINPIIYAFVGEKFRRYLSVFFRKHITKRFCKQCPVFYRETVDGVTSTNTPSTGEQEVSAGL
Nature of the assay: Calcium mobilization assay (FLIPR, MCP-1 stimulated CHOK1-CCR2B-A5 cells). The assay is classed as cell-based. Conditions: antagonist activity vs 20 nM MCP-1, CHOK1-CCR2B-A5 cells. The protocol:
Calcium Mobilization Assay
CHOK1-CCR2B-A5 cells (from Euroscreen) stably overexpressing the human chemokine receptor 2 isoform B were cultured in Nutrient Hams F12 medium supplemented with 5% FBS, 100 U/ml penicillin, 100 μg/ml streptomycin, 400 μg/ml G418 and 5 μg/ml puromycin.
For the assay cells were grown overnight in 384-well black clear flat bottom polystyrene plates (Costar) at 37° C. at 5% CO2. After washing with DMEM, 20 mM Hepes, 2.5 mM probenecid, 0.1% BSA (DMEM assay buffer) cells were loaded with 4 μM Fluo-4 in the same DMEM assay buffer for 2 hours at 30° C. Excess dye was removed and cells were washed with DMEM assay buffer. 384-well compound plates were prepared with DMEM assay buffer/0.5% DMSO with or without various concentrations of test compounds. Usually compounds were tested for agonist and antagonist activity.
Test compounds were added to the assay plate and agonist activity was monitored as fluorescence for 80 seconds with a FLIPR (488 nm excitation; 510-570 nm emission; Molecular Devices). After 20-30 min. of incubation at 30° C., 20 nM MCP-1 (R&D; Roche) was added and fluorescence was monitored again for 80 seconds. Increases in intracellular calcium are reported as maximum fluorescence after agonist exposure minus basal fluorescence before exposure. Antagonist activity is indicated as inhibitor concentration required for 50% inhibition of specific calcium increases.
Take `Cc1cc(-c2cccc(OC(F)(F)F)c2)cc(C)c1C(=O)N1CCC(N2CCCC2)CC1` [Example 1, (3,5-Dimethyl-3′-trifluoromethoxy-biphenyl-4-yl)-(4-pyrrolidin-1-yl-piperidin-1-yl)-methanone]: the IC50 was determined as 60 nM.

With `Cc1cc(-c2cccc(C(F)(F)F)c2)cc(C)c1C(=O)N1CCC(N2CCCC2)CC1` [Example 2, (3,5-Dimethyl-3′-trifluoromethyl-biphenyl-4-yl)-(4-pyrrolidin-1-yl-piperidin-1-yl)-methanone], the IC50 came out at 21 nM.

Take `Cc1cc(-c2cccc(OC(F)(F)F)c2)ccc1C(=O)N1CCC(N2CCCC2)CC1` [Example 6, (3-Methyl-3′-trifluoromethoxy-biphenyl-4-yl)-(4-pyrrolidin-1-yl-piperidin-1-yl)-methanone]: the 50% inhibitory concentration (IC50) was 430 nM.

Turning to `Cc1cc(-c2cccc(C(F)(F)F)c2)ccc1C(=O)N1CCC(N2CCCC2)CC1` [Example 7, (3-Methyl-3′-trifluoromethyl-biphenyl-4-yl)-(4-pyrrolidin-1-yl-piperidin-1-yl)-methanone], the IC50 came out at 150 nM.

With `Cc1cc(-c2cccc(C(F)(F)F)c2)cc(C)c1C(=O)N1CCC(N2CCC[C@H]2CO)CC1` [Example 9, (3,5-Dimethyl-3′-trifluoromethyl-biphenyl-4-yl)-[4-((S)-2-hydroxymethyl-pyrrolidin-1-yl)-piperidin-1-yl]-methanone], the IC50 is 9 nM.

Regarding `Cc1cc(-c2cccc(OC(F)(F)F)c2)cc(C)c1C(=O)N1CCC(N2CCC[C@H]2CO)CC1` [Example 10, (3,5-Dimethyl-3′-trifluoromethoxy-biphenyl-4-yl)-[4-((S)-2-hydroxymethyl-pyrrolidin-1-yl)-piperidin-1-yl]-methanone], the IC50 was 39 nM.

For the compound `Cc1nc(-c2cccc(C(F)(F)F)c2)nc(C)c1C(=O)N1CCC(N2CCCC2)CC1` [Example 13, [4,6-Dimethyl-2-(3-trifluoromethyl-phenyl)-pyrimidin-5-yl]-(4-pyrrolidin-1-yl-piperidin-1-yl)-methanone], the IC50 came out at 190 nM.

In the case of `Cc1cc(-c2cncc(C(F)(F)F)c2)cc(C)c1C(=O)N1CCC(N2CCC[C@H]2CO)CC1` [Example 14, [2,6-Dimethyl-4-(5-trifluoromethyl-pyridin-3-yl)-phenyl]-[4-((S)-2-hydroxymethyl-pyrrolidin-1-yl)-piperidin-1-yl]-methanone], the IC50 was 48 nM.

As for `Cc1nc(-c2cccc(C(F)(F)F)c2)nc(C)c1C(=O)N1CCC(N2CCC[C@H]2CO)CC1` [Example 16, [4,6-Dimethyl-2-(3-trifluoromethyl-phenyl)-pyrimidin-5-yl]-[4-((S)-2-hydroxymethyl-pyrrolidin-1-yl)-piperidin-1-yl]-methanone], the IC50 worked out at 310 nM.

Take `Cc1nc(-c2cccc(C(F)(F)F)c2)nc(C2CC2)c1C(=O)N1CCC(N2CCCC2)CC1` [Example 18, [4-Cyclopropyl-6-methyl-2-(3-trifluoromethyl-phenyl)-pyrimidin-5-yl]-(4-pyrrolidin-1-yl-piperidin-1-yl)-methanone]: the IC50 amounted to 490 nM.

On to `Cc1nc(-c2cccc(C(F)(F)F)c2)nc(C2CC2)c1C(=O)N1CCC(N2CCC[C@H]2CO)CC1` [Example 19, [4-Cyclopropyl-6-methyl-2-(3-trifluoromethyl-phenyl)-pyrimidin-5-yl]-[4-((S)-2-hydroxymethyl-pyrrolidin-1-yl)-piperidin-1-yl]-methanone], for which the IC50 was determined as 990 nM.

Take `Cc1cc(-c2cccc(C(F)(F)F)c2)cc(C)c1C(=O)N1CCC(N2CCC(O)CC2)CC1` [Example 22, (3,5-Dimethyl-3′-trifluoromethyl-biphenyl-4-yl)-(4-hydroxy-[1,4′]bipiperidinyl-1′-yl)-methanone]: the IC50 turned out to be 55 nM.

`Cc1cc(-c2cncc(C(F)(F)F)c2)cc(C)c1C(=O)N1CCC(N2CCC(O)CC2)CC1` [Example 24, [2,6-Dimethyl-4-(5-trifluoromethyl-pyridin-3-yl)-phenyl]-(4-hydroxy-[1,4′]bipiperidinyl-1′-yl)-methanone]: the concentration for half-maximal inhibition (IC50) was 270 nM.

For `Cc1cc(-c2cccc(C(F)(F)F)c2)nc(C)c1C(=O)N1CCC(N2CCCC2)CC1` [Example 27, [2,4-Dimethyl-6-(3-trifluoromethyl-phenyl)-pyridin-3-yl]-(4-pyrrolidin-1-yl-piperidin-1-yl)-methanone], the half-inhibitory concentration (IC50) was 21 nM.

On to `Cc1cc(-c2cccc(OC(F)(F)F)c2)nc(C)c1C(=O)N1CCC(N2CCCC2)CC1` [Example 28, [2,4-Dimethyl-6-(3-trifluoromethoxy-phenyl)-pyridin-3-yl]-(4-pyrrolidin-1-yl-piperidin-1-yl)-methanone], for which the concentration for half-maximal inhibition (IC50) came out at 79 nM.

As to `Cc1cc(-c2cccc(OC(F)(F)F)c2)nc(C)c1C(=O)N1CCC(N2CCC[C@H]2CO)CC1` [Example 29, [2,4-Dimethyl-6-(3-trifluoromethoxy-phenyl)-pyridin-3-yl]-[4-((S)-2-hydroxymethyl-pyrrolidin-1-yl)-piperidin-1-yl]-methanone], the IC50 was 150 nM.

Take `Cc1cc(-c2cccc(C(F)(F)F)c2)nc(C)c1C(=O)N1CCC(N2CCC[C@H]2CO)CC1` [Example 30, [2,4-Dimethyl-6-(3-trifluoromethyl-phenyl)-pyridin-3-yl]-[4-((S)-2-hydroxymethyl-pyrrolidin-1-yl)-piperidin-1-yl]-methanone]: the concentration for half-maximal inhibition (IC50) amounted to 67 nM.

On to `O=C(c1c(F)cc(-c2cccc(C(F)(F)F)c2)cc1F)N1CCC(N2CCCC2)CC1` [Example 39, (3,5-Difluoro-3′-trifluoromethyl-biphenyl-4-yl)-(4-pyrrolidin-1-yl-piperidin-1-yl)-methanone], for which the 50% inhibitory concentration (IC50) was 89 nM.

Take `O=C(c1c(F)cc(-c2cccc(OC(F)(F)F)c2)cc1F)N1CCC(N2CCCC2)CC1` [Example 40, (3,5-Difluoro-3′-trifluoromethoxy-biphenyl-4-yl)-(4-pyrrolidin-1-yl-piperidin-1-yl)-methanone]: the IC50 turned out to be 220 nM.

Consider `Cc1cc(-c2cncc(C(F)(F)F)c2)nc(C)c1C(=O)N1CCC(N2CCCC2)CC1` [Example 42, (4,6-Dimethyl-5′-trifluoromethyl-[2,3′]bipyridinyl-5-yl)-(4-pyrrolidin-1-yl-piperidin-1-yl)-methanone], for which the half-maximal inhibitory concentration (IC50) turned out to be 240 nM.

On to `Cc1cc(-c2cncc(C(F)(F)F)c2)nc(C)c1C(=O)N1CCC(N2CCC[C@H]2CO)CC1` [Example 43, (4,6-Dimethyl-5′-trifluoromethyl-[2,3′]bipyridinyl-5-yl)-[4-((S)-2-hydroxymethyl-pyrrolidin-1-yl)-piperidin-1-yl]-methanone], for which the concentration for half-maximal inhibition (IC50) came out at 480 nM.

In the case of `COc1cc(-c2cccc(C(F)(F)F)c2)cc(C)c1C(=O)N1CCC(N2CCCC2)CC1` [Example 44, (3-Methoxy-5-methyl-3′-trifluoromethyl-biphenyl-4-yl)-(4-pyrrolidin-1-yl-piperidin-1-yl)-methanone], the IC50 came to 76 nM.

Regarding `Cc1cc(-c2cccc(C(F)(F)F)c2)cc(O)c1C(=O)N1CCC(N2CCCC2)CC1` [Example 45, (3-Hydroxy-5-methyl-3′-trifluoromethyl-biphenyl-4-yl)-(4-pyrrolidin-1-yl-piperidin-1-yl)-methanone], the concentration for half-maximal inhibition (IC50) was found to be 48 nM.

Take `O=C(c1ccc(-c2cccc(C(F)(F)F)c2)cc1Cl)N1CCC(N2CCCC2)CC1` [Example 46, (3-Chloro-3′-trifluoromethyl-biphenyl-4-yl)-(4-pyrrolidin-1-yl-piperidin-1-yl)-methanone]: the IC50 was determined as 122 nM.

Regarding `Cc1cc(-c2cccc(C(F)(F)F)c2)cc(-c2cncnc2)c1C(=O)N1CCC(N2CCCC2)CC1` [Example 47, (5-Methyl-3-pyrimidin-5-yl-3′-trifluoromethyl-biphenyl-4-yl)-(4-pyrrolidin-1-yl-piperidin-1-yl)-methanone], the IC50 was found to be 12 nM.

Turning to `Cc1cc(-c2cccc(C(F)(F)F)c2)cc(-c2cccnc2)c1C(=O)N1CCC(N2CCCC2)CC1` [Example 48, (5-Methyl-3-pyridin-3-yl-3′ trifluoromethyl-biphenyl-4-yl)-(4-pyrrolidin-1-yl-piperidin-1-yl)-methanone], the IC50 was found to be 16 nM.

With `COc1nc(-c2cccc(C(F)(F)F)c2)cc(C)c1C(=O)N1CCC(N2CCCC2)CC1` [Example 50, [2-Methoxy-4-methyl-6-(3-trifluoromethyl-phenyl)-pyridin-3-yl]-(4-pyrrolidin-1-yl-piperidin-1-yl)-methanone], the half-inhibitory concentration (IC50) came out at 82 nM.

For the compound `Cc1cc(-c2cccc(C(F)(F)F)c2)nc(O)c1C(=O)N1CCC(N2CCCC2)CC1` [Example 51, [2-Hydroxy-4-methyl-6-(3-trifluoromethyl-phenyl)-pyridin-3-yl]-(4-pyrrolidin-1-yl-piperidin-1-yl)-methanone; 4-Methyl-3-(4-pyrrolidin-1-yl-piperidine-1-carbonyl)-6-(3-trifluoromethyl-phenyl)-1H-pyridin-2-one (tautomers)], the half-maximal inhibitory concentration (IC50) was found to be 17 nM.
